Measurements from PMC7997453 (Pharmaceuticals, 2021).
Where two headings read alike, the source gives them in different places.

Assays:
CYP3A4 [1] = target: T1, CYP3A4 (Homo sapiens, UniProt P08684); assay: Reversible inhibition (RI) assay on tacrolimus metabolism, CYP3A5*3/*3 HLM
Method: (§3) The reactions were started with the addition of nicotinamide adenine dinucleotide phosphate (NADPH, 1 mM) and stopped 10 min later upon adding a double volume of ice-cold methanol. […] Reactions were terminated with the same method as the CYP3A4 group. All incubations were carried out in triplicate. […] Dixon plots were used to analyze the inhibitory type of RI assay and Ki value.

Caco-2 cell line = settings: cited from earlier work; for Papp,caco-2,(pH 7.4:7.4): ref supplement 7
CYP3A5 [2] = target: T2, CYP3A5 (Homo sapiens, UniProt P20815); assay: Reversible inhibition (RI) assay on tacrolimus metabolism, CYP3A5*1/*3 HLM with CYP3cide
Method: as §3

[3] = cited from earlier work
[4] = octanol/water partition coefficient; format: physicochemical; settings: In-house data
CYP3A5 [5] = target: T2, CYP3A5; assay: Time-dependent inhibition (TDI) assay, testosterone-6β-hydroxylation, CYP3A5*1/*3 HLM with CYP3cide; format: biochemical
Method: (§1) Testosterone-6β-hydroxylation was used to measure the activity of CYP3A4 and CYP3A5. […] With the corresponding double-reciprocal plot, the derived kinetic constants from the inactivation experiments were estimated.
(§2) Two-step incubation was performed to evaluate the TDI assay. […] After pre-incubation for 3 min at 37 °C in a shaking water bath, the enzymatic reaction was started upon adding NADPH (1 mM) with various pre-reaction time (0, 5, 10, 20, 30 min). For TDI on CYP3A5, NADPH (1 mM) was added to the incubation which contained CYP3A5*1/*3 HLM (0.5 mg/mL) and CYP3cide (1.2 μM) after being pre-warmed for 3 min. […] Next step, an aliquot (20 μL) of the primary pre-reaction mixture was transferred to 180 μL of the secondary incubation system which consisted of PBS (0.1 M), testosterone (200 μM) and NADPH (1 mM). The secondary reaction was incubated at 37 °C for 10 min and terminated by adding 400 μL ice-cold acetonitrile containing prednisolone as the internal standard (0.3150 μM for CYP3A5*3/*3 HLM incubation and 0.07875 μM for CYP3A5*1/*3 HLM incubation). […] The observed inactivation rate of the affected enzyme (kobs) was the negative slope of the linear regression. kinact and KI were calculated using Equation (1) by the double-reciprocal plot. I represents the concentration of the inhibitor. (1) kobs=kinact×I/[…]

CYP3A = system: CYP3A; design: method as in PMID 15342469; settings: cited from earlier work
[6] = intrinsic clearance in human liver microsomes; format: in vitro ADME; settings: In-house data, read-out: CLint,HLM
CYP3A4 [7] = target: T1, CYP3A4; assay: Time-dependent inhibition (TDI) assay, testosterone-6β-hydroxylation, CYP3A5*3/*3 HLM; format: biochemical
Method: as §1, §2

[8] = design: method as in supplement 5; settings: ref supplement 5; cited from earlier work
[9] = design: method as in supplement 4; settings: ref supplement 4; cited from earlier work
[10] = design: method as in supplement 6; settings: ref supplement 6; cited from earlier work
[11] = cited from earlier work; remark: listed apart in the source
CYP3A5 [12] = settings: cited from earlier work; for Km: unbound Michaelis constant
CYP3A4 [13] = system: CYP3A4; design: method as in earlier work; settings: ref 3 (supplement ref 8), cited from earlier work; for Km: unbound Michaelis constant
[14] = ref supplement 4; cited from earlier work
[15] = design: method as in PMID 25028625; settings: cited from earlier work
[16] = design: method as in PMID 12676880; settings: cited from earlier work
[17] = 0.125 μM STA, 0.2 μM tacrolimus
[18] = 0.125 μM STA, 0.4 μM tacrolimus
[19] = 0.125 μM STA, 0.8 μM tacrolimus
[20] = 0.125 μM STA, 1.6 μM tacrolimus
[21] = single oral dose 1 mg, CYP3A5 expressers
[22] = single oral dose 1 mg, CYP3A5 non-expressers
[23] = single oral dose 2 mg, CYP3A5 expressers
[24] = single oral dose 2 mg, CYP3A5 non-expressers
[25] = single oral dose 5 mg, CYP3A5 expressers
[26] = single oral dose 5 mg, CYP3A5 non-expressers

T2 sequence (P20815 whole entry): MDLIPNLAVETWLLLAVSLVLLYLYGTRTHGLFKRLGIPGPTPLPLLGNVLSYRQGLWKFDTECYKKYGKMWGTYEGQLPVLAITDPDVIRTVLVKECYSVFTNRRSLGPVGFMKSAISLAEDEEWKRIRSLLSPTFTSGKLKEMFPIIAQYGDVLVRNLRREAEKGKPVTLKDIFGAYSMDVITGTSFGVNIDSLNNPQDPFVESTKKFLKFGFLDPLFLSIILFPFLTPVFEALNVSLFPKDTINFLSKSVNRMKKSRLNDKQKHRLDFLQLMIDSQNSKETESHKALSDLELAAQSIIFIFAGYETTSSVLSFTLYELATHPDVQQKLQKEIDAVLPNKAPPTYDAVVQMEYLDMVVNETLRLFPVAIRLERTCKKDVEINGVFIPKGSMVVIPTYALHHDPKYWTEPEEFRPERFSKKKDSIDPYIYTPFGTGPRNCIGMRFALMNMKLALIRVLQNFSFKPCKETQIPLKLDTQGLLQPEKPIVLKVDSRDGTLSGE
T1 sequence (P08684 whole entry): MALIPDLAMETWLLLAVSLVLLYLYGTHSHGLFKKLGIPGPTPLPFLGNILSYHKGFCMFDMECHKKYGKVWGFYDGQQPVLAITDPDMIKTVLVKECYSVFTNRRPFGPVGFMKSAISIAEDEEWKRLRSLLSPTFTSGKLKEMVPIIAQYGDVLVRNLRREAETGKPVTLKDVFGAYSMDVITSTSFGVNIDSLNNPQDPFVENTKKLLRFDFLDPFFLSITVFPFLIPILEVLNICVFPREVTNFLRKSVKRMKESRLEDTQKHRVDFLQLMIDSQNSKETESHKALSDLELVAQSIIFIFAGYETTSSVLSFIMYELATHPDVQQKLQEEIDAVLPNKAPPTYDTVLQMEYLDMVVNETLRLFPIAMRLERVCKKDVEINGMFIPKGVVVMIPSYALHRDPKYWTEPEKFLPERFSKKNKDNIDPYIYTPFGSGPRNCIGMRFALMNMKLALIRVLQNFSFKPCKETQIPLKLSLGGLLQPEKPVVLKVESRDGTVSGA

Structure (SMILES): COc1cc2c(c(OC)c1OC)-c1c(cc3c(c1OC)OCO3)CC(C)C(C)(O)C2OC(=O)c1ccccc1 (stereo not drawn) [STA, schisantherin A]
- Ki (CYP3A4 [1]): 150 nM
- Dixon plot data point, Figure 2A, Mean (CYP3A4 [1]; [17]): 17.0000
- Dixon plot data point, Figure 2A, Mean (CYP3A4 [1]; [18]): 9.0441
- Dixon plot data point, Figure 2A, Mean (CYP3A4 [1]; [19]): 7.1353
- Dixon plot data point, Figure 2A, Mean (CYP3A4 [1]; [20]): 2.6233
- Dixon plot data point, Figure 2A, Mean (CYP3A4 [1]; 0.25 μM STA, 0.2 μM tacrolimus): 21.0000
- Dixon plot data point, Figure 2A, Mean (CYP3A4 [1]; 0.25 μM STA, 0.4 μM tacrolimus): 14.8861
- Dixon plot data point, Figure 2A, Mean (CYP3A4 [1]; 0.25 μM STA, 0.8 μM tacrolimus): 8.3071
- Dixon plot data point, Figure 2A, Mean (CYP3A4 [1]; 0.25 μM STA, 1.6 μM tacrolimus): 3.9072
- Dixon plot data point, Figure 2A, Mean (CYP3A4 [1]; 0.5 μM STA, 0.2 μM tacrolimus): 35.0000
- Dixon plot data point, Figure 2A, Mean (CYP3A4 [1]; 0.5 μM STA, 0.4 μM tacrolimus): 23.9051
- Dixon plot data point, Figure 2A, Mean (CYP3A4 [1]; 0.5 μM STA, 0.8 μM tacrolimus): 13.9244
- Dixon plot data point, Figure 2A, Mean (CYP3A4 [1]; 0.5 μM STA, 1.6 μM tacrolimus): 5.0160
- reversible inhibition on CYP3A4 (in words) (CYP3A4 [1]; CYP3A5*3/*3 HLM, substrate tacrolimus): competitive reversible inhibition
- Papp,caco-2 (Caco-2 cell line; ref supplement 3): 34.41 ×10⁻⁶ cm/s
- Ki (CYP3A5 [2]): 110 nM
- Dixon plot data point, Figure 2B, Mean (CYP3A5 [2]; [17]): 15.0000
- Dixon plot data point, Figure 2B, Mean (CYP3A5 [2]; [18]): 14.0109
- Dixon plot data point, Figure 2B, Mean (CYP3A5 [2]; [19]): 7.5773
- Dixon plot data point, Figure 2B, Mean (CYP3A5 [2]; [20]): 5.6992
- Dixon plot data point, Figure 2B, Mean (CYP3A5 [2]; 0.25 μM STA, 0.2 μM tacrolimus): 23.2012
- Dixon plot data point, Figure 2B, Mean (CYP3A5 [2]; 0.25 μM STA, 0.4 μM tacrolimus): 15.6487
- Dixon plot data point, Figure 2B, Mean (CYP3A5 [2]; 0.25 μM STA, 0.8 μM tacrolimus): 12.0521
- Dixon plot data point, Figure 2B, Mean (CYP3A5 [2]; 0.25 μM STA, 1.6 μM tacrolimus): 5.8700
- Dixon plot data point, Figure 2B, Mean (CYP3A5 [2]; 0.5 μM STA, 0.2 μM tacrolimus): 30.8928
- Dixon plot data point, Figure 2B, Mean (CYP3A5 [2]; 0.5 μM STA, 0.4 μM tacrolimus): 26.2841
- Dixon plot data point, Figure 2B, Mean (CYP3A5 [2]; 0.5 μM STA, 0.8 μM tacrolimus): 14.9975
- Dixon plot data point, Figure 2B, Mean (CYP3A5 [2]; 0.5 μM STA, 1.6 μM tacrolimus): 8.0120
- reversible inhibition on CYP3A5 (in words) (CYP3A5 [2]; CYP3A5*1/*3 HLM with CYP3cide, substrate tacrolimus): competitive reversible inhibition
- fu plasma ([3]; ref supplement 2): 0.083
- logP [4]: 1.7
- TDI profile on CYP3A5 (in words) (CYP3A5 [5]): not observed
- KI (inactivation) (CYP3A; erythromycin N-demethylation, read-out: inhibitor concentration causing half-maximal inactivation (KI)): 399 nM
- kinact/KI (CYP3A; erythromycin probe substrate): 3843 M⁻¹ s⁻¹
- Ki (CYP3A; reversible inhibition of CYP3A, the substrate is erythromycin, read-out: inhibitory constant (Ki)): 49 nM
- microsomal CLint [6]: 24 µL/min/mg
- TDI profile on CYP3A4 (in words) (CYP3A4 [7]): potent TDI
- log of percentage of control activity, Figure 3A, Mean (CYP3A4 [7]; 0.25 μM STA, pre-incubation 0 min): 4.6010
- log of percentage of control activity, Figure 3A, Mean (CYP3A4 [7]; 0.25 μM STA, pre-incubation 5 min): 4.4164
- log of percentage of control activity, Figure 3A, Mean (CYP3A4 [7]; 0.25 μM STA, pre-incubation 10 min): 4.3386
- log of percentage of control activity, Figure 3A, Mean (CYP3A4 [7]; 0.25 μM STA, pre-incubation 20 min): 4.2986
- log of percentage of control activity, Figure 3A, Mean (CYP3A4 [7]; 0.25 μM STA, pre-incubation 30 min): 4.2407
- log of percentage of control activity, Figure 3A, Mean (CYP3A4 [7]; 0.5 μM STA, pre-incubation 0 min): 4.6010
- log of percentage of control activity, Figure 3A, Mean (CYP3A4 [7]; 0.5 μM STA, pre-incubation 5 min): 4.2393
- log of percentage of control activity, Figure 3A, Mean (CYP3A4 [7]; 0.5 μM STA, pre-incubation 10 min): 4.0778
- log of percentage of control activity, Figure 3A, Mean (CYP3A4 [7]; 0.5 μM STA, pre-incubation 20 min): 3.9359
- log of percentage of control activity, Figure 3A, Mean (CYP3A4 [7]; 0.5 μM STA, pre-incubation 30 min): 3.9183
- log of percentage of control activity, Figure 3A, Mean (CYP3A4 [7]; 1 μM STA, pre-incubation 0 min): 4.5902
- log of percentage of control activity, Figure 3A, Mean (CYP3A4 [7]; 1 μM STA, pre-incubation 5 min): 4.1658
- log of percentage of control activity, Figure 3A, Mean (CYP3A4 [7]; 1 μM STA, pre-incubation 10 min): 4.0515
- log of percentage of control activity, Figure 3A, Mean (CYP3A4 [7]; 1 μM STA, pre-incubation 20 min): 3.8785
- log of percentage of control activity, Figure 3A, Mean (CYP3A4 [7]; 1 μM STA, pre-incubation 30 min): 3.5554
- log of percentage of control activity, Figure 3A, Mean (CYP3A4 [7]; 2 μM STA, pre-incubation 0 min): 4.6052
- log of percentage of control activity, Figure 3A, Mean (CYP3A4 [7]; 2 μM STA, pre-incubation 5 min): 4.0322
- log of percentage of control activity, Figure 3A, Mean (CYP3A4 [7]; 2 μM STA, pre-incubation 10 min): 3.5615
- log of percentage of control activity, Figure 3A, Mean (CYP3A4 [7]; 2 μM STA, pre-incubation 20 min): 3.1694
- log of percentage of control activity, Figure 3A, Mean (CYP3A4 [7]; 2 μM STA, pre-incubation 30 min): 3.0051
- kinact/KI (CYP3A4 [7]; CYP3A4): 748.3 M⁻¹ s⁻¹
- KI (CYP3A4 [7]; CYP3A4, testosterone-6β-hydroxylation): 2450 nM
- kinact (CYP3A4 [7]; human, CYP3A5*3/*3 human liver microsomes, probe testosterone (200 μM), CYP3A4, testosterone-6β-hydroxylation): 0.00183 s⁻¹

Structure (SMILES): C=CC[C@@H]1/C=C(\C)C[C@H](C)C[C@H](OC)[C@H]2O[C@@](O)(C(=O)C(=O)N3CCCC[C@H]3C(=O)O[C@H](/C(C)=C/[C@@H]3CC[C@@H](O)[C@H](OC)C3)[C@H](C)[C@@H](O)CC1=O)[C@H](C)C[C@@H]2OC [tacrolimus]
- fu gut [8]: 1
- Papp,caco-2,(pH 7.4:7.4) (Caco-2 cell line): 13.1 ×10-6cm/s
- B/P [9]: 35
- Intrinsic solubility [10]: 12 µg/mL
- AUC Obs (Observed) [11, 21]: 19.34 ng·h/mL
- Cmax Obs (Observed) [11, 21]: 3.88 ng/mL
- Tmax Obs (Observed) [11, 21]: 1.75 h
- AUC Obs (Observed) [11, 22]: 30.34 ng·h/mL
- Cmax Obs (Observed) [11, 22]: 5.52 ng/mL
- Tmax Obs (Observed) [11, 22]: 1.5 h
- AUC Obs (Observed) [11, 23]: 60.83 ng·h/mL
- Cmax Obs (Observed) [11, 23]: 14.09 ng/mL
- Tmax Obs (Observed) [11, 23]: 1.26 h
- AUC Obs (Observed) [11, 24]: 119.02 ng·h/mL
- Cmax Obs (Observed) [11, 24]: 24.28 ng/mL
- Tmax Obs (Observed) [11, 24]: 1.35 h
- AUC Obs (Observed) [11, 25]: 90.40 ng·h/mL
- Cmax Obs (Observed) [11, 25]: 20.8 ng/mL
- Tmax Obs (Observed) [11, 25]: 1.40 h
- AUC Obs (Observed) [11, 26]: 134.77 ng·h/mL
- Cmax Obs (Observed) [11, 26]: 27.90 ng/mL
- Tmax Obs (Observed) [11, 26]: 1.30 h
- fu plasma ([3]; ref supplement 4): 0.013
- CYP3A5 12-HT Vmax (CYP3A5 [12]; 12-hydroxy tacrolimus formation, ref 3 (supplement ref 8)): 1.4 pmol/min/pmol
- CYP3A5 13-DMT Vmax (CYP3A5 [12]; 13-O-desmethyl tacrolimus formation, ref 3 (supplement ref 8)): 17 pmol/min/pmol
- intrinsic clearance of tacrolimus by CYP3A5 versus CYP3A4 (CYP3A5 [12]; in vitro): more than two-fold faster
- Km (CYP3A5 [12]; ref 3 (supplement ref 8), read-out: CYP3A5 12-HT Km,u): 0.35 µM
- Km (CYP3A5 [12]; ref 3 (supplement ref 8), read-out: CYP3A5 13-DMT Km,u): 0.21 µM
- CYP3A4 12-HT Vmax (CYP3A4 [13]; 12-hydroxy tacrolimus formation): 0.6 pmol/min/pmol
- CYP3A4 13-DMT Vmax (CYP3A4 [13]; 13-O-desmethyl tacrolimus formation): 8 pmol/min/pmol
- Km (CYP3A4 [13]; read-out: CYP3A4 12-HT Km,u): 0.29 µM
- Km (CYP3A4 [13]; read-out: CYP3A4 13-DMT Km,u): 0.21 µM
- LogPo:w [14]: 3.26

Structure (SMILES): Clc1ccccc1C(c1ccccc1)(c1ccccc1)n1ccnc1 [Clotrimazole]
- inhibition on tacrolimus metabolism, CYP3A5 non-expresser patients versus expressers [15]: significantly greater inhibition

Structure (SMILES): CC(=O)N1CCN(c2ccc(OCC3COC(Cn4ccnc4)(c4ccc(Cl)cc4Cl)O3)cc2)CC1 (stereo not drawn) [ketoconazole]
- inhibition (tacrolimus level), CYP3A5 non-expressers versus expressers [16]: more significant inhibition

Structure (SMILES): Cc1ncc2n1-c1ccc(Cl)cc1C(c1ccccc1F)=NC2 [midazolam]
- Papp,caco-2,(pH 7.4:7.4) (Caco-2 cell line): 32.4 ×10-6cm/s
